Where a name gives a salt, the structure may show the parent alone. Read-outs that look alike come from different tables or passages of the source. Blank lines part the entries; values can stand above or below the compound they belong to.
What was measured:
[1] = system: Hartley-derived albino guinea pigs; conditions: for test animals with erythema scores of 1 / test animals with erythema scores of 2: 0.1% w/v DNCB challenge
Protocol: A DNCB positive control group consisting of 10 DNCB test and 10 DNCB control guinea pigs are included in this study. The animals are treated as below with the DNCB test animals receiving 0.1% w/v DNCB in acetone and ethanol for induction and 0.1% and 0.05% w/v DNCB in acetone and ethanol for challenge.
The Test Article, placebo control, and the appropriate positive control articles are administered dermally for approximately 6 hours once on Days 0, 7, and 14 for inductions 1 to 3. The animals are reclipped on the day prior to dosing or induction to visualize the test sites clearly for grading. Following a 2-week rest period, a challenge (Day 28) is performed for Test Article group and placebo group on the same animal but on a different test site than the induction site. During the challenge phase the 20 Test Article group and 10 common challenge control guinea pigs are topically treated with Test Article and the 20 placebo control article and the same 10 common challenge control guinea pigs (separate test sites) are topically treated with placebo. Challenge responses for each of these groups are compared with those of the common challenge control animals. If challenge results are considered indefinite a rechallenge is conducted.
On the day prior to the first DNCB induction or dose administration (Day −1), the hair is removed from the left side of the test animals with a small animal clipper. Care is taken to avoid abrading the skin during the clipping procedures. On the day following clipping (Day 0), chambers containing the appropriate material are applied to the clipped area of the test animals and DNCB test animals. For the induction and challenge phases, a dose of 0.3 mL (or maximum volume for viscous materials) is placed on a 25 mm Hill Top Chamber® backed by adhesive tape (occlusive patch). The chambers are then applied to the clipped surface as quickly as possible.
The application site for induction is moved when irritation persists from a previous induction exposure (to ensure the test article is not dosed on compromised skin) but remains on the left side of the animal.
On the day prior to challenge dose administration, the test, placebo control article, challenge control, DNCB test, and DNCB challenge control animals are weighed, and the hair is removed from the right side of the animals.

[2] = system: Human skin from cosmetic reduction surgery; test: Skin penetration (IVPT), vertical diffusion cell (Method A); type: in vitro ADME
Protocol: The skin is dosed with approx. 6 mg of formulation to achieve a dose of ˜ 10 mg/cm2. Receptor solution is collected at pre-determined intervals over the course of 24 hours and analyzed using a liquid chromatography with tandem mass spectrometry (LC-MS/MS) analytical method.
Following 24 hours, the residual formulation is removed from the surface of the skin. The skin surface is tape-stripped up to five times to remove residual formulation and the top of the skin surface layers (Stratum Corneum). The epidermis is then heat-separated from the dermis. The active agent is extracted from the skin layers and the amount of active agent delivered to the epidermis and dermis is then determined by LC-MS/MS.

[3] = cited from earlier work
[4] = AD murine model: body weight
Protocol: (§1) Atopic Dermatitis is induced by once daily application for 38 days of 100 μl of 0.5% 2,4-dinitrochlorobenzene (DNCB) solution onto the shaved back skin of mice. Starting on day 32, test formulations are administered once daily onto the shaved back skin of mice in addition to DNCB. Several measurements are taken at different time points:
Daily from Day 32: Body weight, mortality, behaviour (scratching), general condition, AD index.

[5] = Solubility test of tofacitinib citrate in solvents and excipients (Method D); type: physicochemical
Protocol: Saturated solutions of tofacitinib citrate in various solvents are generated by agitating (stirring) an excess amount of solid crystalline tofacitinib citrate in the corresponding solvent at ambient conditions. […] An additional analysis is performed after 48 hours of agitation to confirm the determined saturated concentration.

[6] = Stability of tofacitinib citrate solution in 50 mM citrate buffer at different pH, 60° C.; type: physicochemical; design: unit not given here
Description: In one or more embodiments the pH, is about 4, about 4.1, about 4.2, about 4.3, about 4.4, about 4.5, about 4.6, about 4.7, about 4.8, about 4.9 or about 5.

[7] = system: Atopic Dermatitis induced by 2,4-dinitrochlorobenzene (DNCB); test: AD murine model: Atopic Dermatitis Index (ADI, mADI) (Method C); type: in vivo; conditions: DNCB induced mice
Description: In the mouse model the positive control is observed to cause a marked weight loss and thinning of the skin and this can be perceived to mask the scoring observed with the other parameters and omitting it may on one level provide a clearer representation of the treatment potential of the combination since no marked weight loss or thinning is noted other than with the positive control.
The presence of erythema/haemorrhage is scored based on the following scoring grid: • 0=no or no more erythema/haemorrhage on the skin, • 1=weak erythema/haemorrhage on the skin, • 2=moderate erythema/haemorrhage on the skin, • 3=severe erythema/haemorrhage on the skin.
The presence of edema/thickening is scored based on the following scoring grid: • 0=no or no more edema/thickening of the skin, • 1=weak edema/thickening of the skin, • 2=moderate edema/thickening of the skin, • 3=severe edema/thickening of the skin.
The presence of excoriation/erosion is scored based on the following scoring grid: • 0=no or no more excoriation/erosion of the skin, • 1=weak excoriation/erosion of the skin, • 2=moderate excoriation/erosion of the skin, • 3=severe excoriation/erosion of the skin.
The presence of dryness/peeling is scored based on the following scoring grid: • 0=no or no more dryness/peeling of the skin, • 1=weak dryness/peeling of the skin, • 2=moderate dryness/peeling of the skin, • 3=severe dryness/peeling of the skin.
Several measurements are taken at different time points: […]

clinical = conditions: human, in vivo
Protocol: (§2) Values below the limit of concentration are omitted from determination of geometric mean and geometric % CV.
(§3) Frozen samples are thawed at room temperature and homogenized by vortexing. 10 μL of ISTD2 and 104, of Methanol/Water (50/50, v/v) to each sample (exception blank samples for which 20.0 μL Methanol/Water (50/50, v/v) is added) is addeded to Eppendorf tubes each containing 100 μL sample. 300 μL of acetonitrile is added to each sample and vortexed for additional 10 sec. Next samples are centrifuged for 10 min at 14000 rpm at 5° C. 310 μL of the supernatant is transferred into a 96-DWP. Samples are evaporated at approximately 40° C. (turbovap 96) under N2. 100 μL mobile phase A (see table below) is added to each sample and the 96-DWP is sealed with heatsealing foil and shaken for 5 min on a Vortex-shaker and then centrifuged for 5 min with settings 4500 rpm at 5° C. The 96-DWP is transferred to the autosampler and then the samples are diluted by 100-fold, first by adding 10 μl of sample in 904, of blank plasma/water (dilution 1/10) and then by pipetting 104, of sample diluted 10 fold in 904, of blank plasma (dilution 1/100). The diluted samples are vortexed for 5 sec and processed.
(§4) After, the analyte is separated on a Luna Omega Polar C18 column (50×2.1 mm, 3 μm) with gradient elution of a mobile phase composed of water/acetonitrile/ammonium formate/formic acid it is analyzed using electrospray ionization (ESI) tandem mass spectrometry (MS/MS) in the multiple reaction monitoring mode (MRM).

[8] = human, in vivo
Protocol: as §2, §3, §4

[9] = Chemical stability of formulations (Method H); type: physicochemical; conditions: gel with Tofacitinib Citrate 1.0% and Fingolimod HCl 0.01% (Table 38)
Protocol: Where another active agent such as fingolimod is present in the formulations the samples are analyzed for that active agent and its degradation products by HPLC. […] The gradient elution is employed.

[10] = system: Atopic Dermatitis induced by DNCB; design: species or system mice; conditions: mouse, in vivo
Protocol: as §1
Day 39: Histological analysis of skin samples, microscopic scoring of AD, blood assays, assay for pro-inflammatory cytokines IL-1β, IL-6, IL-18, TNF-α, IgE, and histamine assays.

[11] = Ex 43 Table 43 (fingolimod and tofacitinib)
[12] = Ex 42 Table 42 (fingolimod alone)

Compound: O=[N+]([O-])c1ccc(Cl)c([N+](=O)[O-])c1 [DNCB, 2,4-dinitrochlorobenzene]
- test animals with dermal scores of 1 ([1]; 0.05% w/v DNCB challenge, 24-hour scoring interval): 4/10
- test animals with erythema scores of 1 ([1]; 24-hour scoring interval): 5/10
- test animals with erythema scores of 2 ([1]; 24-hour scoring interval): 5/10
- test animals with erythema scores of 1 ([1]; 48-hour scoring interval): 6/10
- test animals with erythema scores of 2 ([1]; 48-hour scoring interval): 4/10
- Group mean dermal score at challenge ([1]; challenge with 0.05% w/v DNCB in acetone and ethanol, control animals 0.25): 0.6
- Group mean dermal score at challenge ([1]; challenge with 0.1% w/v DNCB in acetone and ethanol, control animals 0.375): 1.45

Compound: CCCCCCCCc1ccc(CCC(N)(CO)CO)cc1 [Fingolimod HCl 0.011%]
- Dermis concentration, ng (based on the Mean) [2, 11]: 14.82 ng
- Epidermis concentration, ng (based on the Mean) [2, 11]: 16.21 ng

Compound: CCCCCCCCc1ccc(CCC(N)(CO)CO)cc1 [Fingolimod HCl 0.022%]
- Dermis concentration, ng (based on the Mean) [2, 12]: 49.16 ng
- Epidermis concentration, ng (based on the Mean) [2, 12]: 37.5 ng

Compound: CCCCCCCCc1ccc(CCC(N)(CO)CO)cc1 [Fingolimod hydrochloride]
- solubility ([3]; ethanol): soluble
- solubility ([3]; range from pH 1.2-4.5): freely soluble
- solubility ([3]; water and methanol): freely soluble
- tolerability (body weight) ([4]; fingolimod AD study, 0.1% w/w and 1% w/w): not well tolerated

Compound: C[C@@H]1CCN(C(=O)CC#N)C[C@@H]1N(C)c1ncnc2[nH]ccc12 [Tofacitinib citrate]
- Solubility of TOF Citrate ([5]; in 0.02% HCl): 4.06 mg/g
- Solubility of TOF Citrate ([5]; in 0.05% NaOH): ND (degraded)
- Solubility of TOF Citrate ([5]; in Benzyl Alcohol): 0.81 mg/g
- Solubility of TOF Citrate ([5]; in DMSO): >150 mg/g
- Solubility of TOF Citrate ([5]; in Diisopropyl adipate): 0.02 mg/g
- Solubility of TOF Citrate ([5]; in Dimethyl isosorbate): 1.27 mg/g
- Solubility of TOF Citrate ([5]; in Ethanol): 0.61 mg/g
- Solubility of TOF Citrate ([5]; in Glycerin): 0.97 mg/g
- Solubility of TOF Citrate ([5]; in Hexylene Glycol): 0.25 mg/g
- Solubility of TOF Citrate ([5]; in Isopropyl Alcohol): 0.24 mg/g
- Solubility of TOF Citrate ([5]; in Isopropyl myristate): <0.02 mg/g
- Solubility of TOF Citrate ([5]; in MCT oil (Caprylic/capric triglycerides)): <0.01 mg/g
- Solubility of TOF Citrate ([5]; in Oleyl alcohol): 0.09 mg/g
- Solubility of TOF Citrate ([5]; in PPG-11 Stearyl ether): 0.02 mg/g
- Solubility of TOF Citrate ([5]; in Polyethylene Glycol 200): 5.16 mg/g
- Solubility of TOF Citrate ([5]; in Polyethylene Glycol 400): 6.96 mg/g
- Solubility of TOF Citrate ([5]; in Propylene Glycol): 1.70 mg/g
- Solubility of TOF Citrate ([5]; in Transcutol): 2.01 mg/g
- Solubility of TOF Citrate ([5]; in Water): 2.77 mg/g
- Imp B ([6]; pH 4.5, 2 w): 0.10
- RRT 1.29 ([6]; pH 5, 1 w): 0.09
- RRT 1.42 ([6]; pH 5, 1 w): 0.14
- RRT 1.29 ([6]; pH 5, 2 w): 0.08

Compound: CC1(C)O[C@@H]2C[C@H]3[C@@H]4CCC5=CC(=O)C=C[C@]5(C)[C@@]4(F)[C@@H](O)C[C@]3(C)[C@]2(C(=O)CO)O1 [Triamcinolone acetonide]
- ADI breakdown: Dryness-Peeling D39 ([7]; Example 41, D39): 0.88
- ADI breakdown: Edema-Thickening D39 ([7]; Example 41, D39): 0.00
- ADI breakdown: Erythema-Haemorrhage D39 ([7]; Example 41, D39): 0.00
- ADI breakdown: Excoriation-Erosion D39 ([7]; Example 41, D39): 0.00
- Body weight: Weight D32 ([4]; DNCB induced mice, Example 41, D32 (treatment start), mean): 18.31
- Body weight: Weight D39 ([4]; DNCB induced mice, Example 41, D39, mean): 15.66
- Mean Body Weight Change d39 − d32 ([4]; DNCB induced mice, Example 41, (+) weight gain, (−) weight loss): −2.65

Compound: C[C@@H]1CCN(C(=O)CC#N)C[C@@H]1N(C)c1ncnc2[nH]ccc12 [tofacitinib]
- AUC(0-t) (clinical; AUC(0-12) Median): 1.97 ng·h/mL
- AUC(0-t) (clinical; AUC(0-24) Geomean): 3.21 ng·h/mL
- AUC(0-t) (clinical; AUC(0-24) Mean): 4.03 ng·h/mL
- AUC(0-t) (clinical; AUC(0-24) Median): 3.14 ng·h/mL
- Tmax (clinical; Tmax Geomean): 5.05 h
- Tmax (clinical; Tmax Median): 6 h
- AUC(0-12) Median [8]: 1056 pg·h/mL
- Tmax Geomean [8]: 3.00 h
- Tmax Median [8]: 3.00 h
- Assay of Tofacitinib, % LC ([9]; 2 months at 40° C.): 99.2 % LC
- Assay of Tofacitinib, % LC ([9]; 2 months at 50° C.): 98.6 % LC
- Assay of Tofacitinib, % LC ([9]; 3 weeks at 5° C.): 99.3 % LC
- Assay of Tofacitinib, % LC ([9]; 3 weeks at 50° C.): 99.1 % LC

Compound: CC1(C)O[C@@H]2C[C@H]3[C@@H]4CCC5=CC(=O)C=C[C@]5(C)[C@@]4(F)[C@@H](O)C[C@]3(C)[C@]2(C(=O)CO)O1 [triamcinolone acetonide]
- AD Index, Mean ADI values D 39 ([7]; combination study (Example 41), D 39): 0.88

- skin thinner than vehicle-treated normal skin [10]: about 0.8 fold
Compound: Triamcinolone
- Body weight D39, Mean ([4]; mouse, in vivo): 17.7 g
- Body weight D39 mean ([4]; mouse, in vivo): 17.1 g
- Mean Body Weight Change d39 − d32 ([4]; mouse, in vivo): −2.80

From US20230320984A1, “TOFACITINIB-CONTAINING ANHYDROUS ELASTOMER-BASED GEL FORMULATIONS” (Vyne Therapeutics Inc., priority 2022, published 2023)
